Data reported in ChEMBL document CHEMBL3352705, “Anion inhibition study of the β-class carbonic anhydrase (PgiCAb) from the oral pathogen Porphyromonas gingivalis” (Bioorg Med Chem Lett, 2014).

Target: Carbonic anhydrase 2 (Homo sapiens, UniProt P00918)

SMILES: [F-].[Na+] [SODIUM FLUORIDE]
- Ki: > 200 mM
